The RepoRT retention time repository
Structures can show the parent of a compound that is named as a salt.

Assay: RP, Waters ACQUITY Premier BEH C18, 100 × 2.1 mm, 1.7 µm, 40 °C, 0.3 to 0.4 mL/min, estimated dead time 0.73 min; A: water + 0.1% formic acid; B: acetonitrile + 0.1% formic acid; gradient (min/%B) 0/0.5 0.1/0.5 10/80 10.1/99.5 12/0.5 12.1/0.5 14.5/0.5
Details: stereoisomer not certain

Nc1nc2c(ncn2C2OC3COP(=O)(O)OC3C2O)c(=O)[nH]1 (configuration not stated) [CYCLIC GMP] and CC1OC(n2cnc3c(N)ncnc32)C(O)C1O (configuration not stated) [5'-DEOXYADENOSINE] are within 1.5-fold of each other in LC retention time: 3.35 min for the first, 3.5 min for the second.

O=c1[nH]c(=O)c2[nH]cnc2[nH]1 [XANTHINE] and Cn1c(=O)[nH]c2nc[nH]c2c1=O [1-METHYLXANTHINE] are within 1.5-fold of each other in LC retention time: 2.11 min for the first, 1.42 min for the second.

NC(=O)c1ncn(C2OC(COP(=O)(O)O)C(O)C2O)c1N (configuration not stated) [AICAR] and Nc1ccn(C2OC(CO)C(O)C2O)c(=O)n1 (configuration not stated) [CYTIDINE] are within 1.5-fold of each other in LC retention time: 1.28 min for the first, 1.41 min for the second.

Going from C=CCSCC(N)C(=O)O (configuration not stated) [S-ALLYLCYSTEINE] to CCCCC(N)C(=O)O (configuration not stated) [NORLEUCINE], the LC retention time rises from 1.22 min to 2.79 min (2.3-fold).

NC(N)=S [THIOUREA] and NC(N)=NCCCC(=O)O [4-GUANIDINOBUTANOATE] are within 1.5-fold of each other in LC retention time: 0.942 min for the first, 1.35 min for the second.

O=C(O)C(=O)Cc1ccccc1 [PHENYLPYRUVATE] and O=C(O)c1ccccc1C(=O)O [PHTHALIC ACID] are within 1.5-fold of each other in LC retention time: 5.38 min for the first, 4.52 min for the second.

O=c1cc[nH]c2c(O)cccc12 [QUINOLINE-4,8-DIOL] and O=C(O)Cc1c[nH]c2ccccc12 [INDOLEACETIC ACID] are within 1.5-fold of each other in LC retention time: 4.14 min for the first, 5.72 min for the second.

CC(=O)OC(C)(C)C=CC(=O)C(C)(O)C1C(O)CC2(C)C3CC=C4C(CC(O)C(=O)C4(C)C)C3(C)C(=O)CC12C (configuration not stated) [CUCURBITACIN B] and CC1(C)OC2CC(=O)OCC23C1CC(=O)C1(C)C3CCC2(C)C(c3ccoc3)OC(=O)C3OC321 (configuration not stated) [LIMONIN] are within 1.5-fold of each other in LC retention time: 7.07 min for the first, 6.87 min for the second.

First: NCC(O)c1ccc(O)c(O)c1 (configuration not stated) [NORADRENALINE]
Second: O=C(O)Cc1cc(O)ccc1O [HOMOGENTISATE]
The LC retention time of the first is 4.1-fold lower: 0.887 min for the first, 3.66 min for the second.

First: O=C(O)CCCCCCC(=O)NCC(=O)O [SUBERYLGLYCINE]
Second: CCCCCC(O)C(O)CC=CCCCCCCCC(=O)O (configuration not stated) [12,13-DIHOME]
The LC retention time of the first is 2-fold lower: 3.79 min for the first, 7.5 min for the second.

CC1OC(Oc2c(-c3ccc(O)c(O)c3)oc3cc(O)cc(O)c3c2=O)C(O)C(O)C1O (configuration not stated) [QUERCITRIN] and CC1OC(Oc2c(-c3cc(O)c(O)c(O)c3)oc3cc(O)cc(O)c3c2=O)C(O)C(O)C1O (configuration not stated) [MYRICITRIN] are within 1.5-fold of each other in LC retention time: 4.68 min for the first, 4.4 min for the second.

First: O=C(O)CNC(=O)c1ccc(O)cc1 [4-HYDROXYHIPPURIC ACID]
Second: COC(=O)c1ccc(O)cc1 [METHYLPARABEN]
The LC retention time of the first is 2.4-fold lower: 2.42 min for the first, 5.79 min for the second.

Going from O=CNCC(=O)O [N-FORMYLGLYCINE] to O=C(O)CNC(=O)C=Cc1ccccc1 [CINNAMOYLGLYCINE], the LC retention time rises from 0.962 min to 5.02 min (5.2-fold).

Cc1ncc(CO)c(C(=O)O)c1O [4-PYRIDOXATE] and O=C(O)c1c(O)cccc1O [2,6-DIHYDROXYBENZOIC ACID] are within 1.5-fold of each other in LC retention time: 3.4 min for the first, 4.5 min for the second.

Cn1c(=O)[nH]c2[nH]c(=O)[nH]c2c1=O [1-METHYLURIC ACID] and O=c1[nH]c(=O)c2[nH]c(=O)[nH]c2[nH]1 [URATE] are within 1.5-fold of each other in LC retention time: 1.21 min for the first, 1.52 min for the second.

Going from OCC1OC(OC2OC(CO)C(O)C(O)C2O)C(O)C(O)C1O (configuration not stated) [TREHALOSE] to O=C(O)C1=COC(OC2OC(CO)C(O)C(O)C2O)C2C(CO)=CCC12 (configuration not stated) [GENIPOSIDIC ACID], the LC retention time rises from 0.911 min to 1.89 min (2.1-fold).

CC12CCC(=O)C=C1CCC1C2C(O)CC2(C)C1CCC2(O)C(=O)CO (configuration not stated) [CORTISOL] and CC(CCC(=O)O)C1CCC2C3C(=O)CC4CC(O)CCC4(C)C3CCC12C (configuration not stated) [NUTRIACHOLIC ACID] are within 1.5-fold of each other in LC retention time: 6.06 min for the first, 7.25 min for the second.

First: CC(C)C(N)C(=O)O (configuration not stated) [VALINE]
Second: CC(C)CC(=O)C(=O)O [KETOLEUCINE]
The LC retention time of the first is 3.3-fold lower: 1.21 min for the first, 4.02 min for the second.

First: O=C(O)C=Cc1cnc[nH]1 [UROCANATE]
Second: O=C(O)Cc1cccc(O)c1 [3-HYDROXYPHENYLACETATE]
The LC retention time of the first is 2.5-fold lower: 1.39 min for the first, 3.54 min for the second.

Going from O=C(C=CC=Cc1ccc2c(c1)OCO2)N1CCCCC1 [PIPERINE] to O=C(C=Cc1ccc(O)c(O)c1)OC1CC(O)(C(=O)O)CC(O)C1OC(=O)C=Cc1ccc(O)c(O)c1 (configuration not stated) [4,5-DI-O-CAFFEOYLQUINIC ACID], the LC retention time falls from 7.22 min to 4.78 min (1.5-fold).

COc1cc2ccc(=O)oc2cc1O [SCOPOLETIN] and O=c1ccc2ccc(O)cc2o1 [UMBELLIFERONE] are within 1.5-fold of each other in LC retention time: 4.62 min for the first, 4.61 min for the second.

First: O=c1ccc2cc(OC3OC(CO)C(O)C(O)C3O)c(O)cc2o1 (configuration not stated) [AESCULIN]
Second: COc1ccc(C2CC(=O)c3c(O)cc(OC4OC(CO)C(O)C(O)C4OC4OC(C)C(O)C(O)C4O)cc3O2)cc1O (configuration not stated) [HESPERETIN 7-NEOHESPERIDOSIDE]
The LC retention time of the first is 1.5-fold lower: 3.14 min for the first, 4.83 min for the second.

COc1cccc(OC)c1C(=O)O [2,6-DIMETHOXYBENZOIC ACID] and COc1ccc(O)c(C(=O)O)c1 [5-METHOXYSALICYLIC ACID] are within 1.5-fold of each other in LC retention time: 4.71 min for the first, 5.46 min for the second.

Going from Cn1cc(C(N)=O)ccc1=O [N1-METHYL-2-PYRIDONE-5-CARBOXAMIDE] to NC(=O)c1ccccc1O [SALICYLAMIDE], the LC retention time rises from 1.12 min to 5.04 min (4.5-fold).

Cc1cc2nc3[nH]c(=O)[nH]c(=O)c3nc2cc1C [LUMICHROME] and Cc1cc2nc3c(=O)[nH]c(=O)nc-3n(CC(O)C(O)C(O)COP(=O)(O)O)c2cc1C (configuration not stated) [FLAVIN MONONUCLEOTIDE] are within 1.5-fold of each other in LC retention time: 5.49 min for the first, 3.73 min for the second.

Going from CC(=O)NCCCCN [N-ACETYLPUTRESCINE] to NC(=O)CCCCC1CCSS1 (configuration not stated) [LIPOAMIDE], the LC retention time rises from 0.96 min to 5.5 min (5.7-fold).

CC(=CC(=O)O)C(=O)O [2-METHYLMALEATE] and CC(=O)NC(CCC(=O)O)C(=O)O (configuration not stated) [N-ACETYLGLUTAMATE] are within 1.5-fold of each other in LC retention time: 3.29 min for the first, 2.2 min for the second.

Cc1ccccc1C(=O)O [2-METHYLBENZOIC ACID] and Cc1cc(C(=O)O)ccc1O [4-HYDROXY-3-METHYLBENZOIC ACID] are within 1.5-fold of each other in LC retention time: 5.38 min for the first, 4.47 min for the second.

COc1ccc(C2CC(=O)c3c(O)cc(OC4OC(COC5OC(C)C(O)C(O)C5O)C(O)C(O)C4O)cc3O2)cc1O (configuration not stated) [HESPERIDINE] and COc1ccc(C2CC(=O)c3c(O)cc(O)cc3O2)cc1O (configuration not stated) [HESPERETIN] are within 1.5-fold of each other in LC retention time: 4.77 min for the first, 6.26 min for the second.

First: NC(Cc1cc(I)c(Oc2cc(I)c(O)c(I)c2)c(I)c1)C(=O)O (configuration not stated) [THYROXINE]
Second: Nc1cc(O)cc(C(=O)O)c1 [3-AMINO-5-HYDROXYBENZOATE]
The LC retention time of the first is 4.4-fold higher: 6.62 min for the first, 1.49 min for the second.

C[N+](C)(C)CCCC(=O)[O-] [DEOXYCARNITINE] and CCC(=O)OC(CC(=O)[O-])C[N+](C)(C)C (configuration not stated) [PROPIONYLCARNITINE] are within 1.5-fold of each other in LC retention time: 0.901 min for the first, 0.894 min for the second.

CC(=O)N1CCCC1C(=O)O (configuration not stated) [N-ACETYLPROLINE] and CC(=O)NC(CS)C(=O)O (configuration not stated) [N-ACETYLCYSTEINE] are within 1.5-fold of each other in LC retention time: 3.77 min for the first, 4 min for the second.

Compared with CC(C)CC(=O)OC(CC(=O)[O-])C[N+](C)(C)C (configuration not stated) [ISOVALERYLCARNITINE], CCCCCCCCCC(=O)OCC(COP(=O)([O-])OCC[N+](C)(C)C)OC(=O)CCCCCCCCC (configuration not stated) [DIDECANOYL-GLYCEROPHOSPHOCHOLINE] is 1.9-fold higher in LC retention time: 4.39 min for the first, 8.51 min for the second.

Compared with NC(=O)c1ccc[n+](C2OC(COP(=O)(O)OP(=O)(O)OCC3OC(n4cnc5c(=O)[nH]cnc54)C(O)C3O)C(O)C2O)c1 (configuration not stated) [NICOTINAMIDE HYPOXANTHINE DINUCLEOTIDE], Nc1ncnc2c1ncn2C1OC(COP(=O)(O)OP(=O)(O)OC2OC(CO)C(O)C(O)C2O)C(O)C1O (configuration not stated) [ADP-GLUCOSE] is 1.7-fold lower in LC retention time: 2.02 min for the first, 1.16 min for the second.

Cn1c(=O)[nH]c2ncn(C)c2c1=O [PARAXANTHINE] and Cn1c(=O)c2c(ncn2C)n(C)c1=O [CAFFEINE] are within 1.5-fold of each other in LC retention time: 3.95 min for the first, 4.3 min for the second.

Oc1ccc(O)cc1 [HYDROQUINONE] and O=C(CCc1ccc(O)cc1)c1c(O)cc(O)cc1O [PHLORETIN] are within 1.5-fold of each other in LC retention time: 4.46 min for the first, 6.03 min for the second.

CC(=O)C(C)O (configuration not stated) [ACETOIN] and CC(O)CCCC(=O)O (configuration not stated) [5-HYDROXYHEXANOIC ACID] are within 1.5-fold of each other in LC retention time: 3.5 min for the first, 3.96 min for the second.

CCCCCCCCCCCCCC(=O)OCC(O)CO (configuration not stated) [GLYCEROL-MYRISTATE] and CCCCCCCCCCCCCCCC(=O)NCCO [PALMITOYLETHANOLAMIDE] are within 1.5-fold of each other in LC retention time: 8.67 min for the first, 8.84 min for the second.

COc1c2ccoc2cc2oc(=O)ccc12 [BERGAPTEN] and COc1ccc(-c2oc3cc(OC)c(OC)c(O)c3c(=O)c2OC)cc1O [CASTICIN] are within 1.5-fold of each other in LC retention time: 6.74 min for the first, 6.98 min for the second.

Compared with CCCCCCC[C@@H](O)CC(=O)O [(R)-3-HYDROXYDECANOIC ACID], CSCCC(NC(C)=O)C(=O)O (configuration not stated) [N-ACETYLMETHIONINE] is 1.7-fold lower in LC retention time: 7.09 min for the first, 4.21 min for the second.

NCCc1c[nH]c2ccccc12 [TRYPTAMINE] and NC(CCC(=O)NC(Cc1ccccc1)C(=O)O)C(=O)O (configuration not stated) [GAMMA-GLUTAMYLPHENYLALANINE] are within 1.5-fold of each other in LC retention time: 4.34 min for the first, 3.65 min for the second.

Going from O=C1CCNC(=O)N1 [DIHYDROURACIL] to Cc1ccc(OS(=O)(=O)O)cc1 [P-CRESOL SULFATE], the LC retention time rises from 1.37 min to 4.57 min (3.3-fold).

Going from CS(=O)CCCN=C=S (configuration not stated) [3-METHYLSULFINYLPROPYL ISOTHIOCYANATE] to COc1cc(CNC(=O)CCCCC=CC(C)C)ccc1O [CAPSAICIN], the LC retention time rises from 4.1 min to 7.3 min (1.8-fold).

C=CC1CN2CCC1CC2C(O)c1ccnc2ccc(OC)cc12 (configuration not stated) [QUININE] and O=Cc1cccc(O)c1 [3-HYDROXYBENZALDEHYDE] are within 1.5-fold of each other in LC retention time: 3.88 min for the first, 5.11 min for the second.

CC(CCC(=O)NCC(=O)O)C1CCC2C3C(O)CC4CC(O)CCC4(C)C3CC(O)C12C (configuration not stated) [GLYCOCHOLATE] and CC(CCC(=O)NCCS(=O)(=O)O)C1CCC2C3CCC4CC(O)CCC4(C)C3CCC12C (configuration not stated) [LITHOCHOLYLTAURINE] are within 1.5-fold of each other in LC retention time: 6.68 min for the first, 7.55 min for the second.

Going from CC(C)=CCCC(C)C1CCC2C3CC=C4CC(O)CCC4(C)C3CCC12C (configuration not stated) [DESMOSTEROL] to OCC(Cc1cccc(O)c1)C(CO)Cc1cccc(O)c1 (configuration not stated) [ENTERODIOL], the LC retention time falls from 9.25 min to 5.95 min (1.6-fold).
